Test results: patent publication US8993756B2 (Merck Sharp & Dohme Corp., priority 2011, dated 2015)

What was measured:
JAK2 = JAK2 (Homo sapiens (Human), UniProt O60674); experiment: Jak Biochemical HTRF Assay (JAK2); settings: recombinant GST-tagged catalytic domain, [ATP] 8.5 μM
JAK3 = JAK3 (Homo sapiens (Human), UniProt P52333); experiment: Jak Biochemical HTRF Assay (JAK3); settings: recombinant GST-tagged catalytic domain, [ATP] 2.9 μM
JAK3, sequence (P52333 822-1111): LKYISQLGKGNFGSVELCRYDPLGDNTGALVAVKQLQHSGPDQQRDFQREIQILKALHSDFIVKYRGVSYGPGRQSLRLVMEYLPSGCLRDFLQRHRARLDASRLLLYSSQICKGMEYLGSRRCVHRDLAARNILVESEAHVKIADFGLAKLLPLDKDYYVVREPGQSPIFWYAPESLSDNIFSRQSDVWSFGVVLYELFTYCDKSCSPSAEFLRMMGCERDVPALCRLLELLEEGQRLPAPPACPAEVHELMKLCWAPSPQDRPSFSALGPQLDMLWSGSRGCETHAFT

JAK2, sequence (O60674 849-1124): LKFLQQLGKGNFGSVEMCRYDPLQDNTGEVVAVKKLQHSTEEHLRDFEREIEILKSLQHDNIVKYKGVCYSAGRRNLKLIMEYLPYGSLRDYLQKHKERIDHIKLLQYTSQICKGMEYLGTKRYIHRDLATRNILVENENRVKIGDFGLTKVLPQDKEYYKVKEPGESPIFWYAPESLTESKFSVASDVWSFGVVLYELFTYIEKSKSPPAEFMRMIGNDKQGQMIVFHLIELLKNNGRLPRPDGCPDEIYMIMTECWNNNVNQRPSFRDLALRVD

Compound C=C(C)C(=O)Nc1cc(-c2ncnc3[nH]cc(C(=O)OCC)c23)ccc1C [Example 4-10] has an IC50 (JAK2) greater than 1500 nM and an IC50 (JAK3) of 0.15 nM.

With C=CC(=O)Nc1cc(-c2ncnc3[nH]cc(C(=O)OCC)c23)ccc1C [Example 4-11, ethyl 4-[3-(acryloylamino)-4-methylphenyl]-7H-pyrrolo[2,3-d]pyrimidine-5-carboxylate] the IC50 (JAK2) was greater than 1500 nM and the IC50 (JAK3) was 0.033 nM.

Work on C=CC(=O)Nc1cccc(-c2ncnc3[nH]cc(C(=O)OCC)c23)c1C [Example 4-12, ethyl 4-[3-(acryloylamino)-2-methylphenyl]-7H-pyrrolo[2,3-d]pyrimidine-5-carboxylate] yielded an IC50 (JAK2) greater than 1500 nM and an IC50 (JAK3) of 0.19 nM.

C=C(C)C(=O)Nc1cccc(-c2ncnc3[nH]cc(C(=O)OCC)c23)c1C [Example 4-13, ethyl 4-{2-methyl-3-[(2-methylacryloyl)amino]phenyl}-7H-pyrrolo[2,3-d]pyrimidine-5-carboxylate] was tested, and the IC50 (JAK2; given as range class) was greater than 500 nM and the IC50 (JAK3; given as range class) was 10 to 500 nM.

C=CC(=O)Nc1cc(-c2ncnc3[nH]cc(C(=O)OCC)c23)ccc1Cl [Example 4-14, ethyl 4-[3-(acryloylamino)-4-chlorophenyl]-7H-pyrrolo[2,3-d]pyrimidine-5-carboxylate] gave an IC50 (JAK2) greater than 1500 nM and an IC50 (JAK3) of 0.066 nM.

C=CC(=O)Nc1cc(-c2ncnc3[nH]cc(C(=O)OCC)c23)ccc1OC [Example 4-15, ethyl 4-[3-(acryloylamino)-4-methoxyphenyl]-7H-pyrrolo[2,3-d]pyrimidine-5-carboxylate] showed an IC50 (JAK2) greater than 1500 nM and an IC50 (JAK3) of 0.11 nM.

Compound C=C(C)C(=O)Nc1cc(-c2ncnc3[nH]cc(C(=O)OCC)c23)ccc1F [Example 4-16, ethyl 4-{4-fluoro-3-[(2-methylacryloyl)amino]phenyl}-7H-pyrrolo[2,3-d]pyrimidine-5-carboxylate] has an IC50 (JAK2) greater than 1500 nM and an IC50 (JAK3) of 0.07 nM.

C=C(C)C(=O)Nc1cc(-c2ncnc3[nH]cc(C(=O)OCC)c23)ccc1OC [Example 4-17, ethyl 4-{4-methoxy-3-[(2-methylacryloyl)amino]phenyl}-7H-pyrrolo[2,3-d]pyrimidine-5-carboxylate] was tested, and the IC50 (JAK2) was greater than 1500 nM and the IC50 (JAK3) was 0.11 nM.

In the case of C=C(C)C(=O)Nc1ccc(F)c(-c2ncnc3[nH]cc(C(=O)OCC)c23)c1 [Example 4-18, ethyl 4-{2-fluoro-5-[(2-methylacryloyl)amino]phenyl}-7H-pyrrolo[2,3-d]pyrimidine-5-carboxylate], the IC50 (JAK2) is reported as greater than 1500 nM and the IC50 (JAK3) is reported as 0.11 nM.

Work on C=C(C)C(=O)Nc1cc(F)cc(-c2ncnc3[nH]cc(C(=O)OCC)c23)c1 [Example 4-19, ethyl 4-{3-fluoro-5-[(2-methylacryloyl)amino]phenyl}-7H-pyrrolo[2,3-d]pyrimidine-5-carboxylate] yielded an IC50 (JAK2) greater than 1500 nM and an IC50 (JAK3) of 0.05 nM.

C=CC(=O)N1CCc2ccc(-c3ncnc4[nH]cc(C(=O)OCC)c34)cc21 [Example 4-20, ethyl 4-(1-acryloyl-2,3-dihydro-1H-indol-6-yl)-7H-pyrrolo[2,3-d]pyrimidine-5-carboxylate] showed an IC50 (JAK2) greater than 1500 nM and an IC50 (JAK3) of 0.081 nM.

C=C(C)C(=O)N1CCc2ccc(-c3ncnc4[nH]cc(C(=O)OCC)c34)cc21 [Example 4-21, ethyl 4-[1-(2-methylacryloyl)-2,3-dihydro-1H-indol-6-yl]-7H-pyrrolo[2,3-d]pyrimidine-5-carboxylate] was tested, and the IC50 (JAK2) was greater than 1500 nM and the IC50 (JAK3) was 2.3 nM.

Work on C=C(C)C(=O)Nc1ccc(C#N)c(-c2ncnc3[nH]cc(C(=O)OCC)c23)c1 [Example 4-22, ethyl 4-{2-cyano-5-[(2-methylacryloyl)amino]phenyl}-7H-pyrrolo[2,3-d]pyrimidine-5-carboxylate] yielded an IC50 (JAK2; given as range class) greater than 500 nM and an IC50 (JAK3; given as range class) of 10 to 500 nM.

In the case of C=C(C)C(=O)n1ccc2ccc(-c3ncnc4[nH]cc(C(=O)OCC)c34)cc21 [Example 4-23, ethyl 4-[1-(2-methylacryloyl)-1H-indol-6-yl]-7H-pyrrolo[2,3-d]pyrimidine-5-carboxylate], the IC50 (JAK2) is reported as greater than 1500 nM and the IC50 (JAK3) is reported as 0.34 nM.

C=C(C)C(=O)Nc1cc(C#N)cc(-c2ncnc3[nH]cc(C(=O)OCC)c23)c1 [Example 4-24, ethyl 4-{3-cyano-5-[(2-methylacryloyl)amino]phenyl}-7H-pyrrolo[2,3-d]pyrimidine-5-carboxylate] was tested, and the IC50 (JAK2) was greater than 1500 nM and the IC50 (JAK3) was 0.068 nM.

In the case of C=C(C)C(=O)Nc1cc(-c2ncnc3[nH]cc(C(=O)OCC)c23)ccc1CO [Example 4-25, ethyl 4-{4-(hydroxymethyl)-3-[(2-methylacryloyl)amino]phenyl}-7H-pyrrolo[2,3-d]pyrimidine-5-carboxylate], the IC50 (JAK2) is reported as greater than 1500 nM and the IC50 (JAK3) is reported as 0.11 nM.

In the case of C=C(C)C(=O)Nc1cc(C)cc(-c2ncnc3[nH]cc(C(=O)OCC)c23)c1 [Example 4-26, ethyl 4-{3-methyl-5-[(2-methylacryloyl)amino]phenyl}-7H-pyrrolo[2,3-d]pyrimidine-5-carboxylate], the IC50 (JAK2) is reported as greater than 1500 nM and the IC50 (JAK3) is reported as 0.19 nM.

In the case of C=C(C)C(=O)Nc1cc(-c2ncnc3[nH]cc(C(=O)OCC)c23)ccc1C#N [Example 4-27, ethyl 4-{4-cyano-3-[(2-methylacryloyl)amino]phenyl}-7H-pyrrolo[2,3-d]pyrimidine-5-carboxylate], the IC50 (JAK2) is reported as greater than 1500 nM and the IC50 (JAK3) is reported as 0.14 nM.

Work on C=C(C)C(=O)Nc1cc(-c2ncnc3[nH]cc(C(=O)OCC)c23)ccc1C(=O)N(C)C [Example 4-28, ethyl 4-{4-(dimethylcarbamoyl)-3-[(2-methylacryloyl)amino]phenyl}-7H-pyrrolo[2,3-d]pyrimidine-5-carboxylate] yielded an IC50 (JAK2) greater than 1500 nM and an IC50 (JAK3) of 1.5 nM.

Work on C=C(C)C(=O)Nc1cc(-c2ncnc3[nH]cc(C(=O)OCC)c23)ccc1S(C)(=O)=O [Example 4-29, ethyl 4-{3-[(2-methylacryloyl)amino]-4-(methylsulfonyl)phenyl}-7H-pyrrolo[2,3-d]pyrimidine-5-carboxylate] yielded an IC50 (JAK2) greater than 1500 nM and an IC50 (JAK3) of 0.087 nM.

In the case of C=C(C)C(=O)Nc1cc(-c2ncnc3[nH]cc(C(=O)OCC)c23)ccc1CN(C)C [Example 4-30, ethyl 4-{4-[(dimethylamino)methyl]-3-[(2-methylacryloyl)amino]phenyl}-7H-pyrrolo[2,3-d]pyrimidine-5-carboxylate], the IC50 (JAK2) is reported as greater than 1500 nM and the IC50 (JAK3) is reported as 1.5 nM.

C=C(C)C(=O)Nc1cc(-c2ncnc3[nH]cc(C(=O)OCC)c23)ccc1O [Example 4-31, ethyl 4-{4-hydroxy-3-[(2-methylacryloyl)amino]phenyl}-7H-pyrrolo[2,3-d]pyrimidine-5-carboxylate] gave an IC50 (JAK2) greater than 1500 nM and an IC50 (JAK3) of 0.11 nM.

In the case of C=C(C)C(=O)Nc1cc(-c2ncnc3[nH]cc(C(=O)OCC)c23)cnc1OC [Example 4-32, ethyl 4-{6-methoxy-5-[(2-methylacryloyl)amino]pyridin-3-yl)-7H-pyrrolo[2,3-d]pyrimidine-5-carboxylate], the IC50 (JAK2) is reported as greater than 1500 nM and the IC50 (JAK3) is reported as 0.68 nM.

Work on C=C(C)C(=O)Nc1cc(-c2ncnc3[nH]cc(C(=O)OCC)c23)c[nH]c1=O [Example 4-33, ethyl 4-{5-[(2-methylacryloyl)amino]-6-oxo-1,6-dihydropyridin-3-yl}-7H-pyrrolo[2,3-d]pyrimidine-5-carboxylate] yielded an IC50 (JAK2) greater than 1500 nM and an IC50 (JAK3) of 0.47 nM.

C=C(C)C(=O)Nc1cc(-c2ncnc3[nH]cc(C(=O)OCC)c23)cn(C)c1=O [Example 4-34, ethyl 4-{1-methyl-5-[(2-methylacryloyl)amino]-6-oxo-1,6-dihydropyridin-3-yl}-7H-pyrrolo[2,3-d]pyrimidine-5-carboxylate] gave an IC50 (JAK2) greater than 1500 nM and an IC50 (JAK3) of 1.1 nM.
